In US7045528B2, “Benzofused heterozryl amide derivatives of thienopyridines useful as therapeutic agents, pharmaceutical compositions including the same, and methods for their use” (Agouron Pharmaceuticals, Inc., priority 2002, dated 2006):
pKi: −log10 of the molar value.

What was measured:
[1] = biological target: T1, unphosphorylated VEGF-R2Δ50 (FLVK) (Homo sapiens, UniProt P35968, DEL940-989/E990V); assay: VEGF-R2 coupled spectrophotometric assay, unphosphorylated VEGF-R2Δ50 (FLVK); format: biochemical; details: unphosphorylated VEGF-R2Δ50; for inhibition at 0.05 µM: 50 nM compound, read-out: FLVK (% inh @ 50 nM)
T1 construct: VEGF-R2Δ50 contains residues 806–939 and 990–1171; made in house; host or cells: baculovirus/insect cell system
Source text: VEGF-R2 Construct for Assay:
This construct determines the ability of a test compound to inhibit tyrosine kinase activity. A construct (VEGF-R2Δ50) of the cytosolic domain of human vascular endothelial growth factor receptor 2 (VEGF-R2) lacking the 50 central residues of the 68 residues of the kinase insert domain was expressed in a baculovirus/insect cell system. Of the 1356 residues of full-length VEGF-R2, VEGF-R2Δ50 contains residues 806–939 and 990–1171, and also one point mutation (E990V) within the kinase insert domain relative to wild-type VEGF-R2. Autophosphorylation of the purified construct was performed by incubation of the enzyme at a concentration of 4 μM in the presence of 3 mM ATP and 40 mM MgCl2 in 100 mM HEPES, pH 7.5, containing 5% glycerol and 5 mM DTT, at 4° C. for 2 h. […] See Parast et al., Biochemistry, 37, 16788–16801 (1998).
Coupled Spectrophotometric (FLVK-P) Assay
The production of ADP from ATP that accompanies phosphoryl transfer was coupled to oxidation of NADH using phosphoenolpyruvate (PEP) and a system having pyruvate kinase (PK) and lactic dehydrogenase (LDH). The oxidation of NADH was monitored by following the decrease of absorbance at 340 nm (e340=6.22 cm^−1 mM^−1) using a Beckman DU 650 spectrophotometer. Assay conditions for phosphorylated VEGF-R2Δ50 (indicated as FLVK-P in the tables below) were the following: 1 mM PEP; 250 μM NADH; 50 units of LDH/mL; 20 units of PK/mL; 5 mM DTT; 5.1 mM poly(E4Y1); 1 mM ATP; and 25 mM MgCl2 in 200 mM HEPES, pH 7.5. Assay conditions for unphosphorylated VEGF-R2Δ50 (indicated as FLVK in the tables) were the following: 1 mM PEP; 250 μM NADH; 50 units of LDH/mL; 20 units of PK/mL; 5 mM DTT; 20 mM poly(E4Y1); 3 mM ATP; and 60 mM MgCl2 and 2 mM MnCl2 in 200 mM HEPES, pH 7.5. Assays were initiated with 5 to 40 nM of enzyme. Ki values were determined by measuring enzyme activity in the presence of varying concentrations of test compounds. […] The binding inhibitions were fitted to equation as described by Morrison. The data were analyzed using Enzyme Kinetic and Kaleidagraph software.

[2] = system: human umbilical vein endothelial cells (HUVEC); assay: HUVEC+VEGF proliferation assay; format: cell-based; details: Homo sapiens, HUVEC; VEGF 6 ng/mL, 72 h, MTT
Method: HUVEC+VEGF Proliferation Assay
This assay determines the ability of a test compound to inhibit the growth factor-stimulated proliferation of human umbilical vein endothelial cells (“HUVEC”). HUVEC cells (passage 3–4; Clonetics, Corp.) were thawed into EGM2 culture medium (Clonetics Corp) in T75 flasks. Fresh EGM2 medium was added to the flasks 24 hours later. Four or five days later, cells were exposed to another culture medium (F12K medium supplemented with 10% fetal bovine serum (FBS), 60 μg/mL endothelial cell growth supplement (ECGS), and 0.1 mg/mL heparin). Exponentially-growing HUVEC cells were used in experiments thereafter. Ten to twelve thousand HUVEC cells were plated in 96-well dishes in 100 μl of rich, culture medium (described above). The cells were allowed to attach for 24 hours in this medium. The medium was then removed by aspiration and 105 μl of starvation media (F12K+1% FBS) was added to each well. After 24 hours, 15 μl of test agent dissolved in 1% DMSO in starvation medium or this vehicle alone was added into each treatment well; the final DMSO concentration was 0.1%. One hour later, 30 μl of VEGF (30 ng/mL) in starvation media was added to all wells except those containing untreated controls; the final VEGF concentration was 6 ng/mL. Cellular proliferation was quantified 72 hours later by MTT dye reduction, at which time cells were exposed for 4 hours MTT (Promega Corp.). Dye reduction was stopped by addition of a stop solution (Promega Corp.) and absorbance at 595 nm was determined on a 96-well spectrophotometer plate reader.

PDGFRβ = biological target: T2, PDGFRβ (Homo sapiens, UniProt P09619); assay: PAE-PDGFRβ phosphorylation in PAE-PDGFRB cells assay; format: cell-based; details: PAE cells overexpressing human PDGFRβ, PDGF-BB stimulated; read-out: PAE PDGFR autophos IC50 (nM) AVG
T2 construct: expressed in transfected cells; host or cells: porcine aorta endothelial (PAE)-PDGFRβ cells
Method: PAE-PDGFRβ Phosphorylation in PAE-PDGFRB Cells Assay
This assay determines the ability of a test compound to inhibit the autophosphorylation of PDGFRβ in porcine aorta endothelial (PAE)-PDGFRβ cells. PAE cells that overexpress human PDGFRβ were used in this assay. The cells were cultured in Ham's F12 media supplemented with 10% fetal bovine serum (FBS) and 400 ug/ml G418. Twenty thousands cells were seeded in each well of a 96-well plate in 50 μL of growth media and allowed to attach for 6 hours at 37° C. Cells were then exposed to the starvation media (Ham's F12 media supplemented with 0.1% FBS) for 16 hours. After the starvation period was over, 10 μL of test agent in 5% DMSO in starvation media were added to the test wells and 10 μL of the vehicle (5% DMSO in starvation media) were added into the control wells. The final DMSO concentration in each well was 0.5%. Plates were incubated at 37° C. for 1 hour and the cells were then stimulated with 1 μg/mL PDGF-BB (R & D System) in the presence of 2 mM Na3VO4 for 8 minutes. The cells were washed once with 1 mm Na3VO4 in HBSS and lysed by adding 50 μL per well of lysis buffer. One hundred μL of dilution buffer were then added to each well and the diluted cell lysate was transferred to a 96-well goat ant-rabbit coated plate (Pierce), which was pre-coated with Rabbit anti Human PDGFRβ antibody (Santa Cruz). The plates were incubated at room temperature for 2 hours and washed seven times with 1% Tween 20 in PBS. HRP-PY20 (Santa Cruz) was diluted and added to the plate for a 30-minute incubation. Plates were then washed again and TMB peroxidase substrate (Kirkegaard & Perry) was added for a 10-minute incubation. One hundred μL of 0.09 N H2SO4 was added into each well of the 96-well plate to stop the reaction. Phosphorylation status was assessed by spectrophotometer reading at 450 nm. IC50 values were calculated by curve fitting using a four-parameter analysis.

T1 sequence (P35968 with tags, fused parts or gaps DEL940-989/E990V limits assumed): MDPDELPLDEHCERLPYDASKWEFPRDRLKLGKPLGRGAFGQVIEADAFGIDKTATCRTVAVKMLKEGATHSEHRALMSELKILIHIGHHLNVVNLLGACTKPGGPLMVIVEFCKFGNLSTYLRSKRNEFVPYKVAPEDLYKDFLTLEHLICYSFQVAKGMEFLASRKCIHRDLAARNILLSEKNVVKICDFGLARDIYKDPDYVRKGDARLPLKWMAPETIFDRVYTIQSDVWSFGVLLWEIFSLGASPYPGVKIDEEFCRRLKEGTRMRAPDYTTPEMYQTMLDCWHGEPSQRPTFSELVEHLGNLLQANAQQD
T2 sequence (P09619 33-1106): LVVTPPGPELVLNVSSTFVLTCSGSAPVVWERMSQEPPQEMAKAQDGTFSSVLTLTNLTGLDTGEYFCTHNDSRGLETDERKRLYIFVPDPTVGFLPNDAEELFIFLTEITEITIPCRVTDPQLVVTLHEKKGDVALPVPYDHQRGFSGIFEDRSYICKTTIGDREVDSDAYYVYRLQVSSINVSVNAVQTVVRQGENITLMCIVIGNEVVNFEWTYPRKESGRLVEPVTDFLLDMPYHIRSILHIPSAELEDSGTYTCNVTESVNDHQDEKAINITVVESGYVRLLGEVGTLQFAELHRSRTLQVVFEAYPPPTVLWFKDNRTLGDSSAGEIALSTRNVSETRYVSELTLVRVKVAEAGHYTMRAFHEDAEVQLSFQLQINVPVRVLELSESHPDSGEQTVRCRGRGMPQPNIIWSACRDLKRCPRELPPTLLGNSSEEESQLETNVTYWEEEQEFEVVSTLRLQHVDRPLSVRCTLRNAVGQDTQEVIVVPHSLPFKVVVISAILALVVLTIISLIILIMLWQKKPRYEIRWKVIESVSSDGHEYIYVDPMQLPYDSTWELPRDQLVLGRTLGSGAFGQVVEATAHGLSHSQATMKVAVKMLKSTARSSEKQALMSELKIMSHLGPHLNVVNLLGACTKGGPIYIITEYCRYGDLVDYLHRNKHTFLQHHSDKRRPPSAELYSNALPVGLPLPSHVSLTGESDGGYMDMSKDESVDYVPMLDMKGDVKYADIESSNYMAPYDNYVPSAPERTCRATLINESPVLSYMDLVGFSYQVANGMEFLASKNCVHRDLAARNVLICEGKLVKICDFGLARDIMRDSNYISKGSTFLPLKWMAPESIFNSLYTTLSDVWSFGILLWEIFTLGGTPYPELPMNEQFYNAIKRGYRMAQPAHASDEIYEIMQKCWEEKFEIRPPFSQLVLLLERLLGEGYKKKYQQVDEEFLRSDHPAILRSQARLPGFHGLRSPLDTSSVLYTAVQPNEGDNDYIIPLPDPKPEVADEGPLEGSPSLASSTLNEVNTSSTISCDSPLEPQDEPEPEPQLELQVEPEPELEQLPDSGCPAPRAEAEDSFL

Row | Compound | inhibition at 0.05 µM [1] | pKi [1] | IC50 (PDGFRβ) | IC50 [2]
1 | CNC(=O)c1c(C)n(C)c2cc(Oc3ccnc4cc(C(=O)N5CCC(CN)C5)sc34)ccc12 (stereo not drawn) [Example 45, 6-[2-(3-Aminomethyl-pyrrolidine-1-carbonyl)-thieno[3,2-b]pyridin-7-yloxy]-1,2-dimethyl-1H-indole-3-carboxylic acid methylamide] | 64% | 8.33 | 26.9 nM | 10 nM
2 | Cc1oc2cc(Oc3ccnc4cc(C(=O)N5CCC[C@H]5CO)sc34)ccc2c1C(=O)NCC(C)C [Example 86, 2-Methyl-6-[2-(2-hydroxymethyl-pyrrolidine-1-carbonyl)-thieno[3,2-b]pyridin-7-yloxy]-benzofuran-3-carboxylic acid isobutyl amide] | 81% | 8.84 | 17.9 nM | 3.07 nM
3 | CCc1oc2cc(Oc3ccnc4cc(C(=O)N5CCC5)sc34)ccc2c1C(=O)NC [Example 98, 6-[2-(Azetidine-1-carbonyl)-thieno[3,2-b]pyridin-7-yloxy]-2-ethyl-benzofuran-3-carboxylic acid methylamide] | 86% | 9.42 | 127 nM | 9.4 nM
4 | CNC(=O)c1c(C)n(C)c2cc(Oc3ccnc4cc(C(=O)N5C[C@@H](O)[C@@H](O)C5)sc34)ccc12 [Example 37, 6-[2-(3,4-Dihydroxy-pyrrolidine-1-carbonyl)-thieno[3,2-b]pyridin-7-yloxy]-1,2-dimethyl-1H-indole-3-carboxylic acid methylamide] | 66% | 8.37 | – | 10 nM
5 | COC[C@@H]1CCCN1C(=O)c1cc2nccc(Oc3ccc4c(C(=O)NCC5CC5)c(C)sc4c3)c2s1 [Example 132, 6[(2-{[(2S)-2-(Methoxymethyl)pyrrolidin-1-yl]carbonyl}thieno[3,2-b]pyridin-7-yl)oxy]-2-methylbenzo[b]thiophene-3-carboxyllc acid (cyclopropylmethyl)amide] | 80% | 8.75 | 467 nM | 5.8 nM
6 | Cc1c(C(=O)NCC2CC2)c2ccc(Oc3ccnc4cc(-c5nccn5C)sc34)cc2n1C [Example 55, N-(Cyclopropylmethyl)-1,2-dimethyl-6-{[2-(1-methyl-1H-imidazol-2-yl)thieno[3,2-b]pyridin-7-yl]oxy}-1H-indole-3-carboxamide] | 62% | 8.31 | 31 nM | 5.8 nM
7 | CNC(=O)c1c(C)n(C)c2cc(Oc3ccnc4cc(-c5cncnc5)sc34)ccc12 [Example 39, 1,2-Dimethyl-6-(2-pyrimidin-5-yl-thieno[3,2-b]pyridin-7-yloxy)-1H-indole-3-carboxylic acid methylamide] | 12% | 7.33 | 61 nM | 8.7 nM

The remaining compounds from weak to strong by pKi [1], led by results:

Row | inhibition at 0.05 µM [1] | pKi [1] | IC50 (PDGFRβ) | Compound | IC50 [2]
8 | 34% | 7.56 | – | CCC(=O)c1cc2nccc(Oc3ccc4c(C(=O)NC)c(C)n(C)c4c3)c2s1 [Example 51, 1,2-Dimethyl-6-(2-propionyl-thieno[3,2-b]pyridin-7-yloxy)-1H-indole-3-carboxylic acid methylamide] | 82 nM
9 | 67% | 7.80 | – | CNC(=O)c1c(C)n(C)c2cc(Oc3ccnc4cc(-c5cccc(OC)n5)sc34)ccc12 [Example 49, 6-[2-(6-Methoxy-pyridin-2-yl)-thieno[3,2-b]pyridin-7-yloxy]-1,2-dimethyl-1H-indole-3-carboxylic acid methylamide] | 7 nM
10 | 68% | 8.19 | – | CNCC1CCN(C(=O)c2cc3nccc(Oc4ccc5c(C(=O)NC)c(C)n(C)c5c4)c3s2)C1 (stereo not drawn) [Example 46, 1,2-Dimethyl-6-[2-(3-methylaminomethyl-pyrrolidine-1-carbonyl)-thieno[3,2-b]pyridin-7-yloxy]-1H-indole-3-carboxylic acid methylamide] | 3.13 nM
11 | 75% | 8.28 | 90.7 nM | Cc1c(C(=O)NC(C)C)c2ccc(Oc3ccnc4cc(-c5nccs5)sc34)cc2n1C [Example 66, 1,2-Dimethyl-6-(2-thiazol-2-yl-thieno[3,2-b]pyridin-7-yloxy)-1H-indole-3-carboxylic acid isopropylamide] | 5.8 nM
12 | 67% | 8.49 | – | CNC(=O)c1csc(-c2cc3nccc(Oc4ccc5c(C(=O)NC)c(C)n(C)c5c4)c3s2)n1 [Example 43, 1,2-Dimethyl-6-[2-(4-methylcarbamoyl-thiazol-2-yl)-thieno[3,2-b]pyridin-7-yloxy]-1H-indole-3-carboxylic acid methylamide] | 10 nM
13 | 76% | 8.55 | 8.9 nM | CNC(=O)c1c(C)n(C)c2cc(Oc3ccnc4cc(-c5ccccn5)sc34)ccc12 [Example 42, 1,2-Dimethyl-6-(2-pyridin-2-yl-thieno[3,2-b]pyridin-7-yloxy)-1H-indole-3-carboxylic acid methylamide] | 4.34 nM
14 | 74% | 8.58 | 229 nM | CO[C@@H]1CCN(C(=O)c2cc3nccc(Oc4ccc5c(C(=O)NCCO)c(C)sc5c4)c3s2)C1 [Example 123, 6-[(2-{[(3R)-3-Methoxypyrrolidin-1-yl]carbonyl}thieno[3,2-b]pyridin-7-yl)oxy]-2-methylbenzo[b]thiophene-3-carboxylic acid 2-hydroxyethylamide] | 10 nM
